Experiments:
PKMYT1 [1] = target: T1, PKMYT1 (Homo sapiens, UniProt Q99640)
T1 sequence (Q99640 1-499): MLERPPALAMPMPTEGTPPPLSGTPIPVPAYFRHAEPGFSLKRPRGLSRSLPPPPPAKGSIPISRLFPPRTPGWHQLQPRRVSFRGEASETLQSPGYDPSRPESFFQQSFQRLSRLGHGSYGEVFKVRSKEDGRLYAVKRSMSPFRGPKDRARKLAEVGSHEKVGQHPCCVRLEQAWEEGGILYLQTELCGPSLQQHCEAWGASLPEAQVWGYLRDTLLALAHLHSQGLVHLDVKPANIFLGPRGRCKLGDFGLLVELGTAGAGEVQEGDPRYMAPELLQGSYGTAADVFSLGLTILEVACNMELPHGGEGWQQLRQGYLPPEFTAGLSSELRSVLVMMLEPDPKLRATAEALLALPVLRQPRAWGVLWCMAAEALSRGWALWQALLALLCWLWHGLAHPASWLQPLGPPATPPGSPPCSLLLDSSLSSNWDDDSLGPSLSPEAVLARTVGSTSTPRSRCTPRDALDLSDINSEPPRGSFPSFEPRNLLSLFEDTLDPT

in vitro [2] = details: human, Caco-2
in vivo [3] = details: male, cynomolgus monkey, plasma, iv, 0.5 mg/kg
in vivo [4] = details: male, beagle, dog, plasma, iv, 0.5 mg/kg
in vivo [5] = details: male, Sprague-Dawley, rat, iv, 1 mg/kg
in vitro [6] = details: human, hepatocytes
[7] = CD-1 mouse pharmacokinetic study; details: female, in vivo, iv, 1 mg/kg
[8] = system: OVCAR3 CCNE1 amplified xenograft; details: PO twice daily (BID), OVCAR3 model ref 6; cited from earlier work
PKMYT1 [9] = target: T1, PKMYT1; test: Fluorescence polarization competitive displacement screen with Tracer 178; details: Tracer 178 binding probe

Which “PKMYT1 inhibition in biochemical ADP release enzymatic assay (in words)” value (“PKMYT1 inhibition” below) (PKMYT1 [1]) does the source give for `Cc1ccccc1-n1c(N)c(C(N)=O)c2nc3ccccc3nc21` [Compound 2, reference compound] here?
Its value is “inactive”.

With `Cc1cc(O)ccc1-n1c(N)c(C(N)=O)c2nc3ccccc3nc21` [Compound 3, 2-amino-1-(4-hydroxy-2-methyl-phenyl)pyrrolo[3,2-b]quinoxaline-3-carboxamide] as the compound, how does the “PKMYT1 inhibition” value (PKMYT1 [1]) read?
Its value is “inactive”.

With `Cc1ccc(N)cc1-n1c(N)c(C(N)=O)c2nc3ccccc3nc21` [Compound 9, 2-amino-1-(5-amino-2-methyl-phenyl)pyrrolo[3,2-b]quinoxaline-3-carboxamide] as the compound, how does the “PKMYT1 inhibition” value (PKMYT1 [1]) read?
Its value is “inactive”.

With `NC(=O)c1c(N)n(-c2cccc3[nH]ccc23)c2nc3ccccc3nc12` [Compound 11, 2-amino-1-(1H-indol-4-yl)pyrrolo[3,2-b]quinoxaline-3-carboxamide] as the compound, how does the “PKMYT1 inhibition” value (PKMYT1 [1]) read?
Its value is “inactive”.

With `NC(=O)c1c(N)n(-c2cccc3[nH]nnc23)c2nc3ccccc3nc12` [Compound 12, 2-amino-1-(1H-benzotriazol-4-yl)pyrrolo[3,2-b]quinoxaline-3-carboxamide] as the compound, how does the “PKMYT1 inhibition” value (PKMYT1 [1]) read?
The value was “inactive”.

Which “PKMYT1 inhibition” value (PKMYT1 [1]) does the source give for `NC(=O)c1c(N)n(-c2cccc3[nH]cnc23)c2nc3ccccc3nc12` [Compound 13, 2-amino-1-(1H-benzimidazol-4-yl)pyrrolo[3,2-b]quinoxaline-3-carboxamide] here?
Its value is “inactive”.

Which “PKMYT1 inhibition” value (PKMYT1 [1]) does the source give for `Cc1ccc(C(F)F)cc1-n1c(N)c(C(N)=O)c2nc3ccccc3nc21` [Compound 14, 2-amino-1-[5-(difluoromethyl)-2-methyl-phenyl]pyrrolo[3,2-b]quinoxaline-3-carboxamide] here?
The value was “inactive”.

With `Cc1c(O)ccc(Cl)c1-n1c(N)c(C(N)=O)c2nc3ccccc3nc21` [Compound 17, 2-amino-1-(6-chloro-3-hydroxy-2-methyl-phenyl)pyrrolo[3,2-b]quinoxaline-3-carboxamide] as the compound, how does the Papp A→B (in vitro [2]) read?
The Papp A→B was 14.1 ×10⁻⁶ cm/s.

Which Papp A→B (in vitro [2]) does the source give for `NC(=O)c1c(N)n(-c2c(Cl)ccc(O)c2Cl)c2nc3ccccc3nc12` [Compound 18, 2-amino-1-(2,6-dichloro-3-hydroxy-phenyl)pyrrolo[3,2-b]quinoxaline-3-carboxamide] here?
Its Papp A→B is 18.8 ×10⁻⁶ cm/s.

Which clearance at 24 h (in vivo [3]) does the source give for `Cc1ccc(O)c(C)c1-n1c(N)c(C(N)=O)c2cc(Cl)cnc21` [Compound 55, (S)-2-amino-5-chloro-1-(3-hydroxy-2,6-dimethyl-phenyl)pyrrolo[2,3-b]pyridine-3-carboxamide] here?
Its clearance at 24 h is 19.4 mL/min/kg.

And the clearance at 24 h (in vivo [4])?
The clearance at 24 h was 21.3 mL/min/kg.

What about the clearance at 24 h (in vivo [5]) of the same compound?
Its clearance at 24 h is 25.6 mL/min/kg.

And the hepatocyte CLint (in vitro [6])?
The hepatocyte CLint was 4.5 µL/min/1e6 cells.

What about the clearance at 24 h [7] of the same compound?
The clearance at 24 h was 59.2 mL/min/kg.

With `Cc1cc2c(C(N)=O)c(N)n(-c3c(C)ccc(O)c3C)c2nc1C` [RP-6306, (S)-2-amino-1-(3-hydroxy-2,6-dimethyl-phenyl)-5,6-dimethyl-pyrrolo[2,3-b]pyridine-3-carboxamide] as the compound, how does the clearance at 24 h (in vivo [4]) read?
The clearance at 24 h was 13.1 mL/min/kg.

And the maximum tolerated dose [8]?
The maximum tolerated dose was 20 mg/kg.

What about the clearance at 24 h [7] of the same compound?
Its clearance at 24 h is 30.4 mL/min/kg.

Which “result in focused screen of 560 known kinase inhibitors” value (PKMYT1 [9]) does the source give for `Cc1nc(Nc2ncc(C(=O)Nc3c(C)cccc3Cl)s2)cc(N2CCN(CCO)CC2)n1` [dasatinib] here?
The value was “potent hits”.
